One assay deals with T1, hGPR120 (Homo sapiens, UniProt Q5NUL3).
T1 construct: expressed in transfected cells; host or cells: CHO-K1
T1 sequence (Q5NUL3 1-361): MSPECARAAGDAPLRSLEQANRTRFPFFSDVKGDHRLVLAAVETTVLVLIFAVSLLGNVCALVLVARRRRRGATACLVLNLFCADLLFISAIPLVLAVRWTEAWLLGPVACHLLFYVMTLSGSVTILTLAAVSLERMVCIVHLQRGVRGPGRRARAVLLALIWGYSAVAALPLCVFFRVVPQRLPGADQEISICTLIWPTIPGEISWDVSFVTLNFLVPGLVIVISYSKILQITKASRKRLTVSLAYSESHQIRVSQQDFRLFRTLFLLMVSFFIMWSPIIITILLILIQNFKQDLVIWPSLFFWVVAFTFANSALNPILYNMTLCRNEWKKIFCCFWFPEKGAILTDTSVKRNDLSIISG
Description: Measurement of activity of GPR120 agonist (cell-based assay), calcium fluorescence. The conditions noted are these: CHO-K1 cells expressing Ga16 and hGPR120; Calcium 5 dye fluorescence; activity class. In a few lines:
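CHO-K1 cells co-expressing Gα16 and hGPR120, loaded with Calcium 5 dye for 1 h at 37° C, received serially diluted agonists (final 0.5% DMSO). Fluorescence (Ex 485/Em 525 nm) was expressed as relative percent over 0.1% DMSO-only wells; activity binned as A >20 μM, B 20–2 μM, C 2–0.2 μM, D <0.2 μM.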
As usually defined, the EC50 is the concentration at which the effect is half-maximal. Turning to `O=C(O)CCc1ccc(NCc2cccnc2SC2CCCC2)cc1` [Example 171, 3-{4-[(2-cyclopentylsulfanyl-pyridin-3-ylmethyl)-amino]-phenyl]-propionic acid], the EC50 fell in the range of 200 to 2000 nM.
Same read-out and setting: under `O=C(O)CCc1ccc(NCc2cccc(SC3CCCC3)n2)cc1` [Example 172, 3-{4-[(6-cyclopentylsulfanyl-pyridin-2-ylmethyl)-amino]-phenyl]-propionic acid] stands 2000 to 20000 nM; under `O=C(O)CCc1ccc(OCc2cccnc2SC2CCCC2)cc1F` [Example 173], under 200 nM; under `O=C(O)C1CC1c1ccc(OCc2cccnc2SC2CCCC2)cc1F` (stereo not drawn) [Example 174], 200 to 2000 nM.
For the compound `O=C(O)CCc1ccc(OCc2cccnc2SC2CCC2)cc1F` [Example 175], the half-maximal effective concentration (EC50) lay in the range of 200 to 2000 nM.
`O=C(O)CCc1ccc(OCc2cccc(SC3CCCC3)n2)cc1F` [Example 177]: the EC50 lay within 200 to 2000 nM.
As for `O=C(O)CCc1ccc(OCc2cccnc2SCC2CC2)cc1F` [Example 178], the EC50 was in the range of 200 to 2000 nM.
In the case of `O=C(O)CCc1ccc(OCc2cccc(SCC3CC3)n2)cc1F` [Example 179], the EC50 fell in the range of 200 to 2000 nM.
For the compound `O=C(O)CCc1ccc(OCc2cccnc2SC2CCC2)cc1` [Example 180], the EC50 was in the range of 200 to 2000 nM.
For `O=C(O)CCc1ccc(OCc2cccc(SC3CCC3)n2)cc1` [Example 181], the EC50 is under 200 nM.
`O=C(O)CCc1ccc(OCc2cccnc2SCC2CC2)cc1` [Example 182]: the EC50 is under 200 nM.
The same measure, in the same setting: under `O=C(O)CCc1ccc(OCc2cccc(SCC3CC3)n2)cc1` [Example 183] stands 200 to 2000 nM; under `Cc1ccc(COc2ccc(CCC(=O)O)cc2)c(SC2CCCC2)n1` [Example 184], 200 to 2000 nM.

Staying with this assay, now noted: CHO-K1 cells expressing Ga16 and hGPR120; Calcium 5 dye fluorescence; numeric value.
Take `O=C(O)CCc1ccc(OCc2cccc(SC3CCC3)n2)cc1F` [Example 176]: the EC50 was found to be 176 nM.
Consider `Cc1ccc(COc2ccc(CCC(=O)O)cc2)c(SC(C)C)n1` [Example 185], for which the EC50 was 441 nM.

The values are drawn from patent publication US9447044B2, “Thioaryl derivatives as GPR120 agonists” (LG LIFE SCIENCES LTD., priority 2012, dated 2016).
